Source: ChEMBL document CHEMBL1201862, “PubChem BioAssay data set” (2004)
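Values below derive from 48-hour exposures of cells grown in 96-well plates, with endpoints linearly interpolated between the two concentrations bracketing the appropriate inhibition level. At the GI50, growth is halved.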 The source made the active and inactive calls. Cut-off read from the data, not from the text of the source: active = GI50 up to about 1.1 µM and inactive = higher.

Columns and labels:
Assay in all cases: inhibition of tumour cell growth, NCI panel, 48 h
[1] = tested on: SK-OV-3
[2] = tested on: HOP-62
[3] = tested on: A498
[4] = tested on: RPMI-8226
[5] = tested on: OVCAR-4
[6] = tested on: SNB-75
[7] = tested on: Hs-578T
[8] = tested on: HCT-116
[9] = tested on: LOX IMVI
[10] = tested on: MDA-N
[11] = tested on: SR
[12] = tested on: UACC-257
[13] = tested on: MDA-MB-231
[14] = tested on: NCI-H460
[15] = tested on: M14
[16] = tested on: NCI-H522
[17] = tested on: HT-29
[18] = tested on: TK-10
[19] = tested on: SF-268
[20] = tested on: U-251
[21] = tested on: EKVX
[22] = tested on: SF-539
[23] = tested on: UACC-62
[24] = tested on: 786-0
[25] = tested on: SNB-19
[26] = tested on: IGROV-1
[27] = tested on: OVCAR-8
[28] = tested on: UO-31
[29] = tested on: SN12C
[30] = tested on: OVCAR-3
[31] = tested on: SK-MEL-2
[32] = tested on: SW-620
[33] = tested on: NCI-H23
[34] = tested on: COLO 205
[35] = tested on: SF-295
[36] = tested on: HCT-15
[37] = tested on: BT-549
[38] = tested on: Malme-3M
[39] = tested on: ACHN
[40] = tested on: KM12
[41] = tested on: K562
[42] = tested on: MCF7
[43] = tested on: HL-60
[44] = tested on: NCI-H226
[45] = tested on: HOP-92
[46] = tested on: T47D
[47] = tested on: RXF 393
[48] = tested on: PC-3
[49] = tested on: HCC 2998
[50] = tested on: A549
[51] = tested on: MDA-MB-435
[52] = tested on: SK-MEL-28
[53] = tested on: MOLT-4
[54] = tested on: NCI/ADR-RES
[55] = tested on: SK-MEL-5
[56] = tested on: CAKI-1
[57] = tested on: OVCAR-5
[58] = tested on: CCRF-CEM
[59] = tested on: DU-145

## Cc1ccc(S(=O)(=O)N2CCSCCSCCSCCSCC2)cc1
[1]
  GI50: 19.1 µM (inactive)
[2]
  GI50: > 40.6 µM (inactive)
[3]
  GI50: > 44.2 µM (inactive)
[4]
  GI50: 77.1 µM (inactive)
[5]
  GI50: 27.8 µM (inactive)
[6]
  GI50: 11.9 µM (inactive)
[7]
  GI50: > 23.3 µM (inactive)
[8]
  GI50: 40 µM (inactive)
[9]
  GI50: 59.6 µM (inactive)
[10]
  GI50: > 89.7 µM (inactive)
[11]
  GI50: > 74.3 µM (inactive)
[12]
  GI50: > 91.2 µM (inactive)
[13]
  GI50: 19.5 µM (inactive)
[14]
  GI50: 56.4 µM (inactive)
[15]
  GI50: 61.4 µM (inactive)
[16]
  GI50: 33.6 µM (inactive)
[17]
  GI50: > 100 µM (inactive)
[18]
  GI50: 44.6 µM (inactive)
[19]
  GI50: 34.5 µM (inactive)
[20]
  GI50: 18.4 µM (inactive)
[21]
  GI50: 48.5 µM (inactive)
[22]
  GI50: 26.9 µM (inactive)
[23]
  GI50: 17.1 µM (inactive)
[24]
  GI50: 21.1 µM (inactive)
[25]
  GI50: 24.8 µM (inactive)
[26]
  GI50: 48.4 µM (inactive)
[27]
  GI50: 24.3 µM (inactive)
[28]
  GI50: 50.2 µM (inactive)
[29]
  GI50: > 58.5 µM (inactive)
[30]
  GI50: 35.5 µM (inactive)
[31]
  GI50: > 34.6 µM (inactive)
[32]
  GI50: > 100 µM (inactive)
[33]
  GI50: 40.1 µM (inactive)
[34]
  GI50: > 100 µM (inactive)
[35]
  GI50: 22.6 µM (inactive)
[36]
  GI50: > 100 µM
[37]
  GI50: 25.4 µM (inactive)
[38]
  GI50: > 72.8 µM (inactive)
[39]
  GI50: > 58.3 µM (inactive)
[40]
  GI50: > 100 µM (inactive)
[41]
  GI50: > 71 µM (inactive)
[42]
  GI50: > 72.9 µM (inactive)
[43]
  GI50: 99.8 µM (inactive)
[44]
  GI50: > 49.9 µM (inactive)
[45]
  GI50: 12.3 µM (inactive)
[46]
  GI50: 36.3 µM (inactive)
[47]
  GI50: > 27.9 µM (inactive)
[48]
  GI50: 55 µM (inactive)
[49]
  GI50: > 100 µM (inactive)
[50]
  GI50: 61.1 µM (inactive)
[51]
  GI50: 73.8 µM (inactive)
[52]
  GI50: > 88.5 µM (inactive)
[53]
  GI50: > 82.2 µM (inactive)
[54]
  GI50: 32 µM (inactive)
[55]
  GI50: 43.1 µM (inactive)
[56]
  GI50: 22.4 µM (inactive)
[57]
  GI50: > 100 µM (inactive)
[58]
  GI50: 64.3 µM (inactive)
[59]
  GI50: > 100 µM (inactive)

## N#C[BH2-][n+]1ccc(C(=O)NNCc2ccc(F)cc2)cc1
[3]
  GI50: > 100 µM (inactive)
[4]
  GI50: > 100 µM (inactive)
[5]
  GI50: 64.1 µM (inactive)
[6]
  GI50: > 100 µM (inactive)
[7]
  GI50: > 100 µM (inactive)
[8]
  GI50: > 100 µM (inactive)
[9]
  GI50: > 100 µM (inactive)
[10]
  GI50: > 100 µM (inactive)
[11]
  GI50: > 100 µM (inactive)
[12]
  GI50: > 100 µM (inactive)
[13]
  GI50: > 100 µM (inactive)
[14]
  GI50: > 100 µM (inactive)
[15]
  GI50: > 100 µM (inactive)
[16]
  GI50: > 100 µM (inactive)
[18]
  GI50: > 100 µM (inactive)
[19]
  GI50: > 100 µM (inactive)
[20]
  GI50: > 100 µM (inactive)
[21]
  GI50: > 100 µM (inactive)
[22]
  GI50: > 100 µM (inactive)
[23]
  GI50: > 100 µM (inactive)
[24]
  GI50: > 100 µM (inactive)
[25]
  GI50: > 100 µM (inactive)
[26]
  GI50: > 100 µM (inactive)
[27]
  GI50: > 100 µM (inactive)
[28]
  GI50: 59.7 µM (inactive)
[29]
  GI50: > 100 µM (inactive)
[30]
  GI50: > 100 µM (inactive)
[31]
  GI50: > 100 µM (inactive)
[32]
  GI50: > 100 µM (inactive)
[34]
  GI50: > 100 µM (inactive)
[35]
  GI50: > 100 µM (inactive)
[36]
  GI50: > 100 µM
[37]
  GI50: > 100 µM (inactive)
[38]
  GI50: > 100 µM (inactive)
[39]
  GI50: > 100 µM (inactive)
[40]
  GI50: > 100 µM (inactive)
[41]
  GI50: > 100 µM (inactive)
[42]
  GI50: > 100 µM (inactive)
[43]
  GI50: > 100 µM (inactive)
[44]
  GI50: > 100 µM (inactive)
[45]
  GI50: > 100 µM (inactive)
[46]
  GI50: > 100 µM (inactive)
[47]
  GI50: > 100 µM (inactive)
[48]
  GI50: > 100 µM (inactive)
[49]
  GI50: > 100 µM (inactive)
[50]
  GI50: > 100 µM (inactive)
[51]
  GI50: > 100 µM (inactive)
[52]
  GI50: > 100 µM (inactive)
[53]
  GI50: > 100 µM (inactive)
[54]
  GI50: > 100 µM (inactive)
[55]
  GI50: > 100 µM (inactive)
[56]
  GI50: > 100 µM (inactive)
[57]
  GI50: > 100 µM (inactive)
[58]
  GI50: > 100 µM (inactive)
[59]
  GI50: > 100 µM (inactive)

## COc1cccc2cc(C(=O)O)c(=O)oc12
[2]
  GI50: > 100 µM (inactive)
[3]
  GI50: > 100 µM (inactive)
[4]
  GI50: > 100 µM (inactive)
[5]
  GI50: > 100 µM (inactive)
[6]
  GI50: > 100 µM (inactive)
[7]
  GI50: > 100 µM (inactive)
[8]
  GI50: > 100 µM (inactive)
[9]
  GI50: > 100 µM (inactive)
[10]
  GI50: > 100 µM (inactive)
[11]
  GI50: > 100 µM (inactive)
[12]
  GI50: > 100 µM (inactive)
[13]
  GI50: > 100 µM (inactive)
[14]
  GI50: > 100 µM (inactive)
[15]
  GI50: > 100 µM (inactive)
[16]
  GI50: > 100 µM (inactive)
[17]
  GI50: > 100 µM (inactive)
[18]
  GI50: > 100 µM (inactive)
[19]
  GI50: > 100 µM (inactive)
[20]
  GI50: > 100 µM (inactive)
[21]
  GI50: > 100 µM (inactive)
[22]
  GI50: > 100 µM (inactive)
[23]
  GI50: 63.7 µM (inactive)
[24]
  GI50: > 100 µM (inactive)
[25]
  GI50: > 100 µM (inactive)
[26]
  GI50: > 100 µM (inactive)
[27]
  GI50: > 100 µM (inactive)
[28]
  GI50: > 100 µM (inactive)
[29]
  GI50: > 100 µM (inactive)
[30]
  GI50: > 100 µM (inactive)
[31]
  GI50: > 100 µM (inactive)
[32]
  GI50: > 100 µM (inactive)
[33]
  GI50: > 100 µM (inactive)
[34]
  GI50: > 100 µM (inactive)
[35]
  GI50: > 100 µM (inactive)
[36]
  GI50: > 100 µM
[37]
  GI50: > 100 µM (inactive)
[38]
  GI50: > 100 µM (inactive)
[39]
  GI50: > 100 µM (inactive)
[40]
  GI50: > 100 µM (inactive)
[41]
  GI50: > 100 µM (inactive)
[42]
  GI50: > 100 µM (inactive)
[43]
  GI50: > 100 µM (inactive)
[44]
  GI50: > 100 µM (inactive)
[45]
  GI50: > 100 µM (inactive)
[46]
  GI50: > 100 µM (inactive)
[47]
  GI50: > 100 µM (inactive)
[48]
  GI50: > 100 µM (inactive)
[49]
  GI50: > 100 µM (inactive)
[50]
  GI50: > 100 µM (inactive)
[51]
  GI50: > 100 µM (inactive)
[52]
  GI50: > 100 µM (inactive)
[53]
  GI50: > 100 µM (inactive)
[54]
  GI50: > 100 µM (inactive)
[55]
  GI50: > 100 µM (inactive)
[56]
  GI50: > 100 µM (inactive)
[57]
  GI50: > 100 µM (inactive)
[58]
  GI50: > 100 µM (inactive)
[59]
  GI50: > 100 µM (inactive)
